Structures are written as SMILES.

Assay [1] has as its system postnatal rat cortical neurones. Description: Whole cell patch clamp recording of glutamate-evoked currents. It counts as cell-based. Conditions: at 10 μM compound, glutamate 0.5 mM, holding potential −60 mV. The protocol:
B: Patch Clamp Recording.
The whole cell configuration of the patch clamp technique (Hamill et al., Pflugers Arch. 1981, […], 85-100) was used to measure glutamate-evoked currents from postnatal rat cortical neurones. A glass coverslip containing the culture was transferred to the recording chamber (Warner Instrument Corp., Hamden, Conn.) mounted on the stage of an inverted microscope (Nikon, Kingston, UK). The recording chamber contained 1-2 ml extracellular solution (145 mM NaCl, 5.4 mM KCl, 10 mM HEPES, 0.8 mM MgCl2, 1.8 CaCl2, 10 mM glucose and 30 mM sucrose, adjusted to pH 7.4 with 1M NaOH) and was constantly perused at a rate of 1 ml/min. Recordings were performed at room temperature (20-22° C.) using an Axopatch 200B amplifier (Axon Instruments Ltd., Foster City, Calif.). Data acquisition and analysis was performed using Signal software (Cambridge Electronic Design Ltd., Cambridge, UK). Pipettes were manufactured from GC120F-10 glass (Harvard Apparatus, Edenbridge UK) using a model P-87 electrode puller (Sutter Instruments Co., Novarto, Calif.). The patch electrodes had typical resistances of between 3-5 MQ when filled with intracellular solution (140 mM potassium gluconate, 20 mM HEPES, 1.1 mM EGTA, 5 mM phosphocreatine, 3 mM ATP, 0.3 mM GTP, 0.1 mM Caca2, 5 mM MgCl2, adjusted to pH 7.4 with 1M KOH). […]

A further assay deals with T1, AMPA (GluR1) receptor (Homo sapiens, UniProt P42261).
T1 construct: expressed in transfected cells; host or cells: HEK cells (HEK.GluR1(i)), kept under hygromycin selection
Description: Ca2+ influx fluorescence assay (FLEXstation, HEK.GluR1(i) cells). Format: cell-based. Conditions: Ca2+ influx in the presence of glutamate, Fluo-3, read-out: EC50, positive modulation of the AMPA receptor. From the text: A: Ca^2+ Influx Fluorescence Assays
The compounds in this invention may be tested using a biological assay which measures Ca^2+ influx mediated through positive modulation of the AMPA (GluR1) receptor using standard techniques in the art such as, but not limited to, a FLEXstation (manufactured by Molecular Devices, Sunnyvale, Calif.). An optical readout using fluorescent probes is employed to measure ion channel dependent changes in intracellular ion concentration or membrane potential. The assay utilises the Ca^2+ conductance of functional homomeric GluR1(i) AMPA receptors to generate glutamate-dependent Ca^2+ responses. Influx of Ca^2+ through the ion channel is measured indirectly through an increase in intracellular Ca^2+ levels using the calcium sensitive dye such as, but not limited to, Fluo-3 (Molecular Devices, Sunnyvale, Calif.) in FLEXstation. A positive AMPA receptor modulator, in the presence of glutamate, will result in an influx of Ca^2+ through the ion channel which can be measured indirectly through an increase in intracellular Ca^2+ levels using the calcium sensitive dye Fluo-3 in FLEXstation.
HEK.GluR1(i) cells were maintained in DMEM supplemented with 10% fetaclone II, 1% non-essential amino acids and 150 μg/mL hygromycin, at 37° C./5% CO2. […]

T1 sequence (P42261 19-906 isoform P42261-2 limits assumed, species assumed): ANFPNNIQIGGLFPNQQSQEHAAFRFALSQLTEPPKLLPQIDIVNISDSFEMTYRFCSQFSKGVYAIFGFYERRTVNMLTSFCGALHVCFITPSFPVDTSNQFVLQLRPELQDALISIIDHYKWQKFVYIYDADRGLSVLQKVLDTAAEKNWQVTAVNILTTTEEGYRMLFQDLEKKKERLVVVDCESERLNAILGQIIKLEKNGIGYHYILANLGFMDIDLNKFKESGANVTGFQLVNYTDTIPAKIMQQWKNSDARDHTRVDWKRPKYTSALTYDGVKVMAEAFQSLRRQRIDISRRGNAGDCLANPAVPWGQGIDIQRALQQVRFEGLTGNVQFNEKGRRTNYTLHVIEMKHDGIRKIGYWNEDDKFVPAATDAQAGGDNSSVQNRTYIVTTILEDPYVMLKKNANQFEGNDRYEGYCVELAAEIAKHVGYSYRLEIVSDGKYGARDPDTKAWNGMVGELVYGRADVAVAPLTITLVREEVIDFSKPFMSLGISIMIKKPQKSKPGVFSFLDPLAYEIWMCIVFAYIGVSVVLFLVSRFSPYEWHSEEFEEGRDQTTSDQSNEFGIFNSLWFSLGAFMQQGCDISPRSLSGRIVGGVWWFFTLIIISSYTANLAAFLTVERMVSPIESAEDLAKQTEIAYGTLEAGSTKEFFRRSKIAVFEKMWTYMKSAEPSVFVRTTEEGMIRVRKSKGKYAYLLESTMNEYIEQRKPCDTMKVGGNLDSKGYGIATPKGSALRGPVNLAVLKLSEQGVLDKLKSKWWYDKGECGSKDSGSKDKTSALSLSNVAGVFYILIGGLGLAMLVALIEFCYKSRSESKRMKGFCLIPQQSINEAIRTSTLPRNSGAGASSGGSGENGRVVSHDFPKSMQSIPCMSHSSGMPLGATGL

`Cc1cc2c(=O)[nH]c(Cn3cc(CNCc4nccs4)c(C(F)(F)F)n3)nc2s1` [Example 1, 6-Methyl-2-((4-((thiazol-2-ylmethylamino)methyl)-3-(trifluoromethyl)-1H-pyrazol-1-yl)methyl)thieno[2,3-d]pyrimidin-4(3H)-one]: the “percentage increase in steady state current” value in assay [1] is 235±44%. Also, the EC50 on AMPA (GluR1) receptor was determined as 1 µM.

The values are drawn from patent publication US8129397B2, “Substituted thieno[2,3-d]pyrimidines as AMPA modulators” (MSD Oss B.V., priority 2007, dated 2012).
